Entries after “also recorded” stand apart in the source; their conditions may differ.
Tests used:
[1] = system: cancerous (Mia-PaCa-2 and PANC1) vs normal (HPDE) pancreatic cells; test: Fluorescent confocal microscopy of GNC biosynthesis, cancerous vs normal cells; type: cell-based; details: 1.00 mM, 24 hr (FIG. 8B)
Description: (§1) Hoechst nuclear stain is the only imaging source in the untreated column and the primary imaging source in the albumin-GNC column and the non-cancer Au^3+ panel. Cells are live during imaging. Scale bars are 10 μm.
(§2) FIG. 8B quantifies GNC channel pixel intensity of the samples in each of the rows of FIG. 8A.
(§3) 2.2. Comparisons of efficiency of the GNC in situ synthesis by cancer and normal cells. We compared GNC biosynthesis between normal (HPDE) and cancerous (Mia-PaCa-2 and PANC1) pancreatic cells using fluorescent confocal microscopy (FIG. 8A). In addition, we compared the efficiency of the intracellular synthesis with extracellular uptake of prefabricated albumin coated GNCs (FIG. 8A). […] Further, there was 12.20- and 7.69-times greater fluorescence due to in situ synthesis relative to cellular uptake of prefabricated GNCs in PANC1 and Mia-PaCa-2 cells, respectively (FIG. 8B).

[2] = system: pancreatic cancer cells (LTPA) vs pancreatic non-cancerous cells (MS1); test: Confocal fluorescence imaging of intracellular GNC formation, cancerous vs non-cancerous cells; type: cell-based
Procedure: Hoechst 33342 stain was used for nuclear contrast. Red channel was used for detection of GNCs with 610 nm emission and 561 nm laser excitation. Scale bars are 25 μm.
Our initial evaluation of intracellular gold nanocluster formation was performed with pancreatic cancer cells (LTPA) and pancreatic non-cancerous cells (MS1) (FIG. 6A-6B). […] Live cell nuclear stain, Hoechst 33342, was used to define the location of nuclei.
Radiosensitization due to intracellular GNC formation (i.e., delivery of Au^3+) was compared between cancerous and non-cancerous cells using a standard clonal assay. For radiosensitization, cells were incubated with 0.1 mM of buffered chloroauric acid in cell culture media for 24 hours. Then, the cells were lifted and plated in 30 mm culture dishes at optimized cell densities for observation of colony formation following irradiation with X-rays at dosages ranging from 0 to 8 Gy (XRAD SmART). […] The radiosensitization results correlated well with the fluorescence images showing greater production of GNCs by cancerous cells (FIG. 6A-6B). For LTPA pancreatic cancer cells the surviving fraction values decreased by a factor of 2.3x and 3.5x for radiation of 4 Gy and 6 Gy, respectively, in cells treated with gold atoms compared to untreated control (FIG. 6B). […]

[3] = system: NIH3T3 cells; test: Confocal fluorescence imaging of intracellular GNC formation; type: cell-based, mouse; details: 1 mM in cell culture media, 24 hours; 561 nm excitation, 610 nm emission
Procedure: FIG. 3A presents fluorescence images of control NIH3T3 cells (left) and cells treated with Au^3+ (right). Both control and treated cells generated fluorescence with nuclear staining by Hoechst 33342. Fluorescent signal in the treated cells was associated with intracellular formation of gold nanoclusters (GNCs). Scale bars 20 μm.
Our initial evaluation of radiosensitization via intracellular GNP formation was performed with 3T3 mouse fibroblast cells. […] Radiosensitization with intracellular GNC formation (i.e., delivery of Au^3+) was compared with pre-fabricated albumin-coated GNCs (Albumin-GNC) prepared according to work by Xie^46 and control cells without treatment via MTS assay (FIG. 3B).

[4] = system: LTPA pancreatic cancer cells; test: Clonogenic assay after X-ray irradiation; type: cell-based; details: 0.1 mM, 24 hours; for radiosensitization effect as compared to untreated control: cancer cells, X-rays 0 to 8 Gy
Procedure: (§4) Radiosensitization due to intracellular GNC formation (i.e., delivery of Au^3+) was compared between cancerous and non-cancerous cells using a standard clonal assay. For radiosensitization, cells were incubated with 0.1 mM of buffered chloroauric acid in cell culture media for 24 hours. Then, the cells were lifted and plated in 30 mm culture dishes at optimized cell densities for observation of colony formation following irradiation with X-rays at dosages ranging from 0 to 8 Gy (XRAD SmART). […] The radiosensitization results correlated well with the fluorescence images showing greater production of GNCs by cancerous cells (FIG. 6A-6B). For LTPA pancreatic cancer cells the surviving fraction values decreased by a factor of 2.3x and 3.5x for radiation of 4 Gy and 6 Gy, respectively, in cells treated with gold atoms compared to untreated control (FIG. 6B). This relative decrease in surviving fraction is similar or better than previously reported values observed in cells treated with pre-synthetized GNPs. We believe that the observed improvement in radiation efficiency in killing cancer cells might be associated with a strong nuclear localization of in situ synthetized GNCs.

[5] = system: pancreatic non-cancerous cells (MS1); test: Clonogenic assay after X-ray irradiation; type: cell-based; details: 0.1 mM, 24 hours, X-rays 0 to 8 Gy
Procedure: as §4

[6] = system: Mia-PaCa-2 cells; test: Fluorescence of in situ synthesis vs uptake of prefabricated GNCs; type: cell-based, human; details: 1.00 mM, 24 hr (FIG. 8B)
Description: as §1, §2, §3

[7] = system: PANC1 cells; test: as above; type: cell-based, human; details: 1.00 mM, 24 hr (FIG. 8B)
Description: as §1, §2, §3

[8] = system: PANC1 pancreatic cancer cells; test: Longitudinal live cell confocal fluorescence imaging of the intracellular distribution of GNCs; type: cell-based, human; details: 0.20 mM, 20 hr time period
Description: 2.1. Intracellular distribution and time dependence of gold nanocluster (GNC) in situ formation. […] Then, we used longitudinal live cell confocal fluorescence imaging to observe time dependence of the intracellular distribution of GNCs formed through biomineralization of Au^3+.

[9] = system: PANC1 cells; test: Clonogenic survival assay of radiosensitization; type: cell-based, human; details: 0.20 mM, 24 hrs
Procedure: FIG. 20 presents evidence of radiosensitization resulting from 24 hour 0.20 mM Au^3+ treatments (lower plot) compared against non-treated (upper plot) determined via clonogenic survival assay and in full cell media to PANC1 pancreatic cancer.
(§5) 2.5. Evaluate radiosensitization efficacy and radiosensitization mechanisms for in situ synthetized GNCs. Based on the studies described in Sections 2.3-2.4, we selected the following conditions for radiosensitization studies in cell culture: 24 hr media conditioning by cells, 10% FBS (v/v) within, and 0.20 mM Au^3+ for 24 hrs.
A standard clonogenic assay was used to evaluate radiosensitization efficacy of intracellular synthetized GNC in PANC1 cells (FIG. 20). […] Dose enhancement factor at 10% surviving fraction (DEF10%) was calculated at 1.317 indicative of a strong radiosensitization in Au^3+ treated cells.

[10] = system: PANC1 pancreatic cancer; test: gamma H2AX foci quantification of double stranded DNA breaks; type: cell-based, human
Procedure: FIG. 21 reports on a mechanistic study of radiosensitization quantifying gamma H2AX foci through fluorescent antibody staining measured at 0, 4, and 24 hours, resulting from 24 hour 0.20 mM Au^3+ treatments (lower three) compared against non-treated (upper three) combined with either 0 Gy or 8 Gy x-ray irradiation. Treatments are in full cell media to PANC1 pancreatic cancer.
as §5
Further, we characterized the mechanisms of radiosensitization through (i) quantification of double stranded DNA breaks via y-H2AX Foci (FIG. 21), (ii) mitochondrial polarization via JC-1 assay (FIG. 22), (iii) NADP total (FIG. 23) and NADP:NADPH ratio (FIG. 24) via NADP(H) assay, and (iv) peroxidation production via TBARS assay (FIG. 25).

[11] = listed as buffered chloroauric acid

## [Au+3].[Cl-].[Cl-].[Cl-].[Cl-].[H+] [Au^3+, chloroauric acid]
[1]
  greater fluorescence due to GNC biomineralization in cancerous cells than in non-cancerous HPDE: ~2 fold
[2]
  GNC formation in cancerous cells as compared to non-cancerous cells: striking increase in GNC formation
[3]
  intracellular formation of GNCs (confocal fluorescence): uniform formation of GNCs
[4]; 4 Gy
  factor of decrease of surviving fraction compared to untreated control: 2.3 x
[4]; 6 Gy
  factor of decrease of surviving fraction compared to untreated control: 3.5 x
[4]
  radiosensitization effect as compared to untreated control: significant radiosensitization effect
[4]; [11]
  radiosensitization effect as compared to untreated control: significantly greater radiosensitization effect
[5]
  radiosensitization in non-cancerous cells: no radiosensitization
[5]; [11]
  radiosensitization in non-cancerous cells: no significant radiosensitization
[6]
  greater fluorescence due to in situ synthesis relative to cellular uptake of prefabricated GNCs: 7.69 times
[7]
  greater fluorescence due to in situ synthesis relative to cellular uptake of prefabricated GNCs: 12.20 times
[8]
  subcellular region of greatest GNC formation: nucleolus had the highest rate of GNC formation; also recorded: greatest in the nucleolus
[9]
  Dose enhancement factor at 10% surviving fraction (DEF10%): 1.317
[9]; 2 Gy
  average surviving fraction: 47.3%
[9]; 4 Gy
  average surviving fraction: 7.3%
[9]; 6 Gy
  average surviving fraction: 2.2%
[10]; 4 hrs after 8 Gy irradiation, 0.20 mM, 24 hrs
  fewer DNA breaks than in untreated control: 29%
[10]; 24 hr post-irradiation, 8 Gy
  repair of DNA breaks: no significant repair
